Data published in US20240268372A1, “Methods and Compositions for Extending Organ and Tissue Preservation” (The General Hospital Corporation, priority 2021, published 2024).
Where “and” joins values, the source holds several entries; their conditions need not be identical. Equal values may be shown once.

Columns and labels:
whole rat livers [1] = test: Optimized partial freezing of whole rat livers: ex vivo simulated transplantation (normothermic reperfusion with whole blood)
Method: (§1) Within this standardized protocol, we first compared GLY, EG, and PG as main permeating CPA using a freezing temperature of −10° C. and storage duration of 1 day (FIG. 37). Using PG as the CPA, we subsequently tested the effect of freezing temperature (−10° C. vs −15° C.) and storage duration (1 day vs 5 days) on liver viability after partial freezing using the same protocol (FIG. 38).
The Affinity Pixie Oxygenator is a clinical grade oxygenator that has graduated fiber bundle density technology and radial flow path that is designed to create a more uniform blood flow, enhance gas transfer, reduce pressure drops, and decrease prime volume. Moreover, it also contains a Balance® Biosurface that contains a hydrophilic polymer coating to reduce platelet adhesion and activation. This adaptation to the oxygenator is essential since recirculating whole blood during simulated transplantation may trigger coagulation and inflammatory events that are not representative of in vivo events and could skew observed outcomes.
(§2) Machine perfusion system: The perfusion system provides a continuous perfusion through the portal vein that is pressure, flow, and temperature controlled. The perfusates can be either recirculated or flushed with a single pass though the liver and perfusates can be changed without interrupting perfusion. The setup and operation of the perfusion system is described in detail elsewhere (see, e.g., ref. 15). There were two oxygenators used in this study, including the Radnoti (Cat #130144) and Affinity Pixie Oxygenator (Cat #BBP241). Due to the flexibility and low cost of the Radnoti oxygenator, it was first used for initial optimization and characterization studies, including determining the effect of permeating CPAs (GLY vs EG vs PG; FIG. 37), temperature (−10 vs −15° C., FIG. 38) storage duration (1 vs 5 days, FIG. 38), and warm ischemic injury.
Preconditioning during SNMP: Directly after procurement the livers were perfused with 250 ml of SNMP preloading solution (see Table 7 for composition of all solutions). The perfusion temperature was set at 21° C. and perfusion was initiated at 5 ml/min. […] Next, the livers were perfused for 30 additional minutes to allow for cellular uptake of 3-O-methyl-D-glucose (3-OMG).
Preloading of CPAs during HMP: The SNMP preloading solution was gradually switched to HMP preloading solution in […] increments, each with 10% decreasing and 10% increasing volumetric fractions of SNMP and HMP preloading solution, respectively. During this switch, the perfusion temperature was lowered to 4° C., and flows were adjusted to a maximum perfusion pressure of 3 mmHg. Dependent on the flowrate, the solution switch took 10-15 minutes. The HMP preloading was continued for 30 additional minutes to ensure complete equilibration of the solution throughout the peripheral liver tissue.
This was done in 10 fractions of 10 ml, each with 10% decreasing and 10% increasing volumetric fractions of HMP preloading solution and storage solution, respectively. During this switch, the perfusion temperature was maintained at 4° C., and the flowrates were lowered to ensure a maximum perfusion pressure of 3 mmHg. The final 15 ml fraction of 100% storage solution was loaded at a fixed flowrate of 0.5 ml/min.
Partial freezing: After loading of the storage solution, the liver was placed in a bag with 50 ml fresh storage solution and suspended in a pre-cooled chiller (Engel, Schwertberg, Austria). Depending on the experimental condition the chiller temperature was pre-cooled to −10° C. or −15° C. and the liver stored for […] 5 days.

whole rat livers [2] = test: Optimized partial freezing of whole rat livers: SNMP recovery after freezing; settings: −15° C., 5 days; at 3 h
Method: as §1
as §2, with “injury. Once the major aspects of the protocol were optimized and characterized, we used the clinical grade Affinity Pixie Oxygenator. […]” for “injury.”

[3] = −10° C., 1 day, at 2 h of simulated transplantation
[4] = clinical grade oxygenator, −15° C., 1 day
[5] = clinical grade oxygenator, −15° C., 1 day, at 2 h
[6] = clinical grade oxygenator, −15° C., 5 day
[7] = clinical grade oxygenator, −15° C., 5 day, at 2 h

OCCO [EG, ethylene glycol]
bile production during simulated transplantation (whole rat livers [1]; −10° C., 1 day): did not produce bile
lactate clearance after first hour of simulated transplantation (whole rat livers [1]; −10° C., 1 day): not observed
microscopic tissue structure (H&E, blinded pathologist) (whole rat livers [1]; −10° C., 1 day): favorable to modest results
oxygen uptake during simulated transplantation (whole rat livers [1]; −10° C., 1 day, at 2 h): 21.4 ± 5.8 µL O2/min/g
tissue adenylate energy charge (whole rat livers [1]; −10° C., 1 day, at 2 h): 0.088±0.065
weight gain during simulated transplantation (whole rat livers [1]; −10° C., 1 day, at 2 h): 2.50±5.26%
AST levels (whole rat livers [1]; [3]): 967±330 U/L
portal lactate concentration (whole rat livers [1]; [3]): 6.68 ± 1.71 mM

CC(O)CO (stereo not shown) [PG, propylene glycol]
lactate (whole rat livers [1]; 30 minutes warm ischemia prior to freezing at −10° C. for 1 day, at 2 h of simulated transplantation): 6.37 ± 1.09 mM
HSP70 in perfusate (whole rat livers [1]; clinical grade oxygenator, 1 day frozen vs Clinical Oxy. Controls): increase
TNFα levels in perfusate (whole rat livers [1]; clinical grade oxygenator, across all groups): no changes
8OHdG in perfusate (whole rat livers [1]; clinical grade oxygenator, frozen livers versus controls): significantly lower
maximum ALT (whole rat livers [1]; [4]): 722.00±155.74 U/L
maximum AST (whole rat livers [1]; [4]): 958.67±278.50 U/L
potassium level at end of simulated transplantation (whole rat livers [1]; [4]): 5.23 ± 0.252 mM
bile production (whole rat livers [1]; [5]): 0.67 ± 0.92 µL/g
liver weight gain during simulated transplantation (whole rat livers [1]; [5]): 12.00±8.66%
vascular resistance (whole rat livers [1]; [5]): 0.004±0.002 mmHg*min*mL-i*g^−1
maximum ALT (whole rat livers [1]; [6]): 886.67±241.80 U/L
maximum AST (whole rat livers [1]; [6]): 1190.33±117.35 U/L
potassium level at end of simulated transplantation (whole rat livers [1]; [6]): 5.167 ± 0.404 mM
bile production (whole rat livers [1]; [7]): 2.92 ± 3.74 µL/g
vascular resistance (whole rat livers [1]; [7]): 0.007±0.010 mmHg*min*mL-i*g^−1
tissue adenylate energy charge (whole rat livers [1]; clinical grade oxygenator, −15° C., 5 days): 0.131±0.031
liver weight gain during simulated transplantation (whole rat livers [1]; clinical grade oxygenator, −15° C., 5 days, at 2 h): 26.00±15.13%
microscopic tissue structure (whole rat livers [1]; −10° C. and −15° C., 1 day): some disruption of the lobular architecture with intact portal triads and hepatocyte swelling
bile production during simulated transplantation (whole rat livers [1]; −10° C., 1 day): did produce bile
lactate clearance after first hour of simulated transplantation (whole rat livers [1]; −10° C., 1 day): cleared lactate
microscopic tissue structure (H&E, blinded pathologist) (whole rat livers [1]; −10° C., 1 day): favorable to modest results
AST levels (whole rat livers [1]; −10° C., 1 day, at 1 h): 567±172 U/L
oxygen uptake during simulated transplantation (whole rat livers [1]; −10° C., 1 day, at 1 h): 36.9 ± 2.34 µL O2/min/g
oxygen uptake during simulated transplantation (whole rat livers [1]; −10° C., 1 day, at 2 h): 38.2 ± 3.66 µL O2/min/g
vascular resistance during simulated transplantation (whole rat livers [1]; −10° C., 1 day, at 2 h): 0.019±0.011 mmHg*min*mL^−1*g^−1
weight gain during simulated transplantation (whole rat livers [1]; −10° C., 1 day, at 2 h): 4.00±9.20%
AST levels (whole rat livers [1]; [3]): 979±520 U/L and 979±521 U/L
portal lactate concentration (whole rat livers [1]; [3]): 2.95 ± 1.73 mM
total cumulative bile volume (whole rat livers [1]; [3]): 3.56 ± 4.02 µL/g
lactate clearance during simulated transplantation (whole rat livers [1]; −15° C., 1 and 5 days): no lactate clearance was observed
bile production during simulated transplantation (whole rat livers [1]; −15° C., 1 day): 6.11 ± 4.69 µL/g
tissue adenylate energy charge (whole rat livers [1]; −15° C., 1 day): 0.061±0.019
AST levels (whole rat livers [1]; −15° C., 1 day, at 1 h): 1283±224 U/L
oxygen uptake during simulated transplantation (whole rat livers [1]; −15° C., 1 day, at 1 h): 23.5 ± 4.68 µL O2/min/g
AST levels (whole rat livers [1]; −15° C., 1 day, at 2 h): 1995±530 U/L
lactate level at end of simulated transplantation (whole rat livers [1]; −15° C., 1 day, at 2 h): 5.21 ± 2.67 mM
maximum ALT (whole rat livers [1]; −15° C., 1 day, at 2 h): 2335±597 U/L
maximum potassium (whole rat livers [1]; −15° C., 1 day, at 2 h): 5.05 ± 0.48 mM
oxygen uptake during simulated transplantation (whole rat livers [1]; −15° C., 1 day, at 2 h): 24.9 ± 2.38 µL O2/min/g
vascular resistance during simulated transplantation (whole rat livers [1]; −15° C., 1 day, at 2 h): 0.021±0.010 mmHg*min*mL^−1*g^−1 and 0.011±0.004 mmHg*min*mL^−1*g^−1
bile production during simulated transplantation (whole rat livers [1]; −15° C., 5 days): 3.32 ± 2.43 µL/g
microscopic tissue structure (whole rat livers [1]; −15° C., 5 days): moderate to marked loss of LSECs
tissue adenylate energy charge (whole rat livers [1]; −15° C., 5 days): 0.062±0.029
lactate level at end of simulated transplantation (whole rat livers [1]; −15° C., 5 days, at 2 h): 5.73 ± 1.29 mM
maximum ALT (whole rat livers [1]; −15° C., 5 days, at 2 h): 2316±242 U/L
maximum potassium (whole rat livers [1]; −15° C., 5 days, at 2 h): 4.95 ± 0.48 mM
oxygen uptake during simulated transplantation (whole rat livers [1]; −15° C., 5 days, at 2 h): 25.4 ± 9.78 µL O2/min/g
vascular resistance during simulated transplantation (whole rat livers [1]; −15° C., 5 days, at 2 h): 0.021±0.021 mmHg*min*mL^−1*g^−1
weight gain during simulated transplantation (whole rat livers [1]; −15° C., 5 days, at 2 h): 30.25±5.56%
weight gain during SNMP recovery after freezing (whole rat livers [2]): 40.00±4.32%
